Each structure is given as a SMILES string.

The melting point is the temperature of the solid-liquid transition.

For `CCc1ccn(Cc2ccccc2O[C@@H]2O[C@H](CO)[C@@H](O)[C@H](O)[C@H]2O)c(=O)c1` [compound 1, 4-ethyl-1-[2-((2S,3R,4S,5S,6R)-3,4,5-trihydroxy-6-hydroxymethyltetrahydropyran-2-yloxy)benzyl]-1H-pyridin-2-one], the melting point is 174 °C.

(Values after US20070299065A1, “Tetrahydropyran Derivatives as Antidiabetics” (MERCK PATENT GMBH, priority 2004, published 2007).)
